Measurements as given in US5118704A, “Substituted 2-aminotetralins useful as dopaminergics” (Whitby Research, Inc., priority 1991, dated 1992).
Where two headings read alike, the source gives them in different places.

Key:
dopamine D2 receptors = molecular target: T1, dopamine D2 receptors (Bos taurus, UniProt P20288); assay: Radioligand binding to dopamine D2 receptors ([3H]-Spiperone, bovine caudate nuclei membranes); conditions: for affinity and selectivity for dopamine D2 receptors (in words): result in words
T1 construct: membranes derived from bovine caudate nuclei assay were employed; from tissue; host or cells: bovine caudate nuclei membranes (brains from a local slaughterhouse)
Method: (§1) To test the selectivity and specificity of the present compounds for binding to dopamine receptors, tests were conducted using the following standard procedures.
(§2) To test binding to dopamine receptors, membranes derived from bovine caudate nuclei assay were employed. Bovine brains were obtained fresh from a local slaughterhouse. The caudate nuclei were dissected out and homogenized in Buffer A (50 mM Tris; 1 mM Na2 -EDTA; 5 mM KCl; 1 mM MgCl2; 2 mM CaCl2; pH 7.4) using a Brinkman Polytron. The homogenate was centrifuged at 40,000 × g for 20 minutes and washed once. The pellett was resuspended in Buffer A, incubated at 37° C. for 15 minutes, then centrifuged. The pellet was washed once more, resuspended to a protein concentration of 5-10 mg/ml in Buffer A and frozen at -70° C. until used.
(§3) The following tritiated drugs were used as radioligands for each of the receptors tested: [^3 H]-Spiperone 21-24 Ci/mmol for D2 receptors, [^3 H]-SCH23390 75-85 Ci/mmol for D1 receptors, and [^3 H]-Para aminoclonidine 48-52 Ci/mmol for α2 -adrenergic receptors. The radio-ligands were incubated with various concentrations of competing drug and the appropriate membrane source for periods of time as follows: 75 minutes at room temperature for D2 receptors, 30 minutes at 37° C. for D1 receptors, or 30 minutes at room temperature for α2 receptors. Specific binding was defined using 1μM butaclamol (D2), 1 μM SCH23390 (D1), or 1 μM yohimbine (α2). In addition the D2 assays contained 30 nM ketaserin in order to block the binding of ^3 H-spiperone to 5HT2 receptors.
(§4) The assays were terminated by filtration using a 24-port Brandell cell harvester over filters that had been previously soaked in 0.1% polyethyleneimine, and the filters were washed three times by filtration of cold buffer. The filters were then placed in 5 ml scintillation vials to which 4 ml of Beckman Ready-Protein was then added, and each vial was counted for 2 minutes in a Beckman 3801 scintillation counter calibrated for conversion of cpm to dpm. Binding data were analyzed using the Ligand program of Munson and Rodbard (1980). The results are presented as Ki values if the data were best fitted to a one-site model, or as KH and KL values if a two-site model produced the better fit.

dopamine D1 receptors = molecular target: T2, dopamine D1 receptors (Bos taurus, UniProt Q95136); assay: Radioligand binding to dopamine D1 receptors ([3H]-SCH23390, bovine caudate nuclei membranes)
T2 construct: membranes derived from bovine caudate nuclei assay were employed; from tissue; host or cells: bovine caudate nuclei membranes (brains from a local slaughterhouse)
Method: as §1, §2, §3, §4

α2-adrenergic receptors = molecular target: T3, α2-adrenergic receptors (Rattus norvegicus, UniProt P22909); assay: Radioligand binding to α2-adrenergic receptors ([3H]-Para aminoclonidine, rat cerebral cortex membranes)
T3 construct: rat cerebral cortex membranes were employed as a source of receptors; from tissue; host or cells: cerebral cortex membranes of male Sprague Dawley rats
T3 sequence (P22909 1-465): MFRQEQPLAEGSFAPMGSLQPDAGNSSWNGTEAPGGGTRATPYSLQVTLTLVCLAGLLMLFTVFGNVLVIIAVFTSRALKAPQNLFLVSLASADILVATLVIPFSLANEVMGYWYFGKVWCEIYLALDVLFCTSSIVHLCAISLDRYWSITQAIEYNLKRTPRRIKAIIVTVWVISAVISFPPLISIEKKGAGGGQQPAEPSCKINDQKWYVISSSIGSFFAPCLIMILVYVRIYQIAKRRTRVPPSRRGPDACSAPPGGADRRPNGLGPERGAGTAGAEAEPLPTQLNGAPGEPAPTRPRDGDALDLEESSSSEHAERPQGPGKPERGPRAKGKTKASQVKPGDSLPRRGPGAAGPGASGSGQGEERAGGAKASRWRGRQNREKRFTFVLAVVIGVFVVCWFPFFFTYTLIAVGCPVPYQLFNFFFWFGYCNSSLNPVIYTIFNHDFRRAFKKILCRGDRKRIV
Method: as §1
To test binding of the compounds to α2 -adrenergic receptors, rat cerebral cortex membranes were employed as a source of receptors. Male Sprague Dawley rats were killed by decapitation and the brains removed. The cerebral cortices were homogenized in 50 mM Tris; 2 mM MgCl2 (pH 7.4), and centrifuged at 40,000 × g for 10 minutes. The pellet was washed once, resuspended in Tris/MgCl2 and incubated with 8 units/ml adenosine deaminase at 37° C. for 30 minutes. The homogenate was centrifuged, washed once, resuspended to a protein concentration of 5-10 mg/ml and frozen at -70° C. until use.
as §3, §4

dopamine D2 = conditions: result in words; cited from earlier work
dopamine receptor = conditions: prior art, result in words; cited from earlier work
[1] = [3H]-Spiperone, bovine caudate membranes, 75 minutes at room temperature, 30 nM ketaserin, read-out: RECEPTOR AFFINITIES Ki, D2 (KL)
[2] = [3H]-SCH23390, bovine caudate membranes, 30 minutes at 37° C., read-out: RECEPTOR AFFINITIES Ki, D1 (KL)
[3] = [3H]-Para aminoclonidine, rat cerebral cortex membranes, 30 minutes at room temperature, read-out: RECEPTOR AFFINITIES Ki, α2

T1 sequence (P20288 whole entry): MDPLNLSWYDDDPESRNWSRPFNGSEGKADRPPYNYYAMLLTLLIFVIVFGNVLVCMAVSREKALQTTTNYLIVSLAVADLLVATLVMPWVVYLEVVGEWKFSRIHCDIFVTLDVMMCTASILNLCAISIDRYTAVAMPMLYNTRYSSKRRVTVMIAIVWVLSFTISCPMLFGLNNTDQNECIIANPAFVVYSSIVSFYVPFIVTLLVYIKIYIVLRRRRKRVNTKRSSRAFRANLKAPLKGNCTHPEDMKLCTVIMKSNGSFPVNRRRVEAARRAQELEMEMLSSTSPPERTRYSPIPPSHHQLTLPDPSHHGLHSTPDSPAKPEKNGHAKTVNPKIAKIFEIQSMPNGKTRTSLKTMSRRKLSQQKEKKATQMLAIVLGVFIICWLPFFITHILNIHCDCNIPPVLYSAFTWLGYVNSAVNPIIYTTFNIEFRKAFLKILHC
T2 sequence (Q95136 whole entry): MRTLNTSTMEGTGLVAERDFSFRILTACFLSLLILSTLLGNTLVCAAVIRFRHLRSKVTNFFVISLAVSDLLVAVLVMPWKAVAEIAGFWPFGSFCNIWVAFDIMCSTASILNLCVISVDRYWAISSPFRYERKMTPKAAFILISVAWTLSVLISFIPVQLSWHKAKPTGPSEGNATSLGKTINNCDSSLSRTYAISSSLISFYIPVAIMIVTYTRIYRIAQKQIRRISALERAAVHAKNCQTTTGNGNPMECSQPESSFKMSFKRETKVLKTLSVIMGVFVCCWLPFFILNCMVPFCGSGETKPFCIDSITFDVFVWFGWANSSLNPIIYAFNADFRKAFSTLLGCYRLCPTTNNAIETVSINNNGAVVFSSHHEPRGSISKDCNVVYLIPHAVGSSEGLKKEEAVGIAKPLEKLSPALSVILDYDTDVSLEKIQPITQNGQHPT

Structure (SMILES) | Ki (dopamine D2 receptors; [1]) | Ki (dopamine D1 receptors; [2]) | Ki (α2-adrenergic receptors; [3]) | also measured
CCCN(CCc1cccs1)C1CCc2c(O)cccc2C1 (racemic) [Example N-0437, reference compound] | – | – | – | Ki (dopamine D2 receptors): 110 nM; Ki (dopamine D1 receptors): 1000 nM; Ki (α2-adrenergic receptors): 190 nM; dopamine D2 agonist potency (in words) (dopamine D2): potent dopamine D2 agonist
CCCN(CCCn1c(C)ccc1C)C1CCc2c(O)cccc2C1 (stereo not shown) [Example 2] | – | – | – | Ki (dopamine D2 receptors): 26 nM; affinity and selectivity for dopamine D2 receptors (in words) (dopamine D2 receptors; listed as 2,5-dimethyl-N-propyl-N-(1,2,3,4-tetrahydro-5-hydroxy-2-naphthalenyl)-1H-pyrrole): high affinity and selectivity for binding to D2 dopamine receptors; affinity and selectivity for dopamine D2 receptors (in words) (dopamine D2 receptors; listed as 6-[[3-(2,5-dimethyl-1H-pyrrol-1-yl)propyl]propylamino-5,6,7,8-tetrahydro-1-napht): high affinity and selectivity for binding to dopamine D2 receptors; Ki (dopamine D1 receptors): 2700 nM; Ki (α2-adrenergic receptors): 1600 nM
CCCN(CCCN1C(=O)c2ccccc2C1=O)C1CCc2c(O)cccc2C1 (stereo not shown) [Example 10, 2-[3-[propyl(1,2,3,4-tetrahydro-5-hydroxy-2-naphthalenyl)amino]propyl]-1H-isoindole-1,3(2H)-dione] | 1260 nM | 3230 nM | 142 nM | –
CN1CCc2cccc3c2[C@H]1Cc1ccc(O)c(O)c1-3 [apomorphine] | – | – | – | dopaminergic activity (in words) (dopamine receptor): high activity

More lines, main results first:

Ki (dopamine D2 receptors; [1]) | Ki (dopamine D1 receptors; [2]) | Ki (α2-adrenergic receptors; [3]) | Structure (SMILES) | also measured
100 nM | 10000 nM | 1400 nM | CCCN(CCn1c(C)ccc1C)C1CCc2c(O)cccc2C1 (stereo not shown) [Example 4, 6-[[2-(2,5-dimethyl-1H-pyrrol-1-yl)ethyl]propylamino]-5,6,7,8-tetrahydro-1-naphthalenol] | –
720 nM | 3000 nM | 1130 nM | CCCN(CCCN1Cc2ccccc2C1)C1CCc2c(O)cccc2C1 (stereo not shown) [Example 11, 6-[[3-(1,3-dihydro-2H-isoindol-2-yl)propyl]propylamino]-5,6,7,8-tetrahydro-1-napththalenol] | –
1260 nM | 14000 nM | 10000 nM | CCCN(CCN1C(=O)c2ccccc2C1=O)C1CCc2c(O)cccc2C1 (stereo not shown) [Example 13, 2-[2-[propyl(1,2,3,4-tetrahydro-5-hydroxy-2-naphthalenyl)amino]ethyl]-1H-isoindole-1,3(2H)-dione] | –
52 nM | 4860 nM | 2630 nM | CCCN(CCN1Cc2ccccc2C1)C1CCc2c(O)cccc2C1 (stereo not shown) [Example 14, 6[[2-(1,3-dihydro-2H-isoindol-2-yl)ethyl]propylamino]-5,6,7,8-tetrahydro-1-naphthalenol] | –
